This note sets out measurements from patent publication US8741911B2, “Raf inhibitor compounds” (Eli Lilly and Company, priority 2012, dated 2014).

Where two headings read alike, the source gives them in different places.

In one series the test system is DMS-53. The series can be described thus: CellTiter-Glo proliferation and viability assay. Format: cell-based. The following applies: Homo sapiens, read-out: Abs IC50.
For the next series, the system named is NCI-H1975. The series can be described thus: CellTiter-Glo proliferation and viability assay. Format: cell-based. The following applies: Homo sapiens.
A further series has as its system MV-4-11. The series is described as follows: CellTiter-Glo proliferation and viability assay. It counts as cell-based. Conditions: Homo sapiens.
A further series concerns NCI-H2052. The series is described as follows: CellTiter-Glo proliferation and viability assay. Format: cell-based. The following applies: Homo sapiens.
In the next series the test system is 22RV1. The series is described as follows: CellTiter-Glo proliferation and viability assay. It counts as cell-based. Conditions: Homo sapiens.
For a further series, the system named is LOUCY. The series can be described thus: CellTiter-Glo proliferation and viability assay. Format: cell-based. The following applies: Homo sapiens, read-out: Abs IC50.
Another series has as its system HEL. The series can be described thus: CellTiter-Glo proliferation and viability assay. It counts as cell-based. Conditions: Homo sapiens, read-out: Abs IC50.
A further series concerns SK-OV-3. The series is described as follows: CellTiter-Glo proliferation and viability assay. Conditions: Homo sapiens. It counts as cell-based.
The next series deals with A375 V600E xenograft. The series is described as follows: A375 xenograft tumor model, efficacy. Format: in vivo, rat. Conditions: nude rats, oral twice a day 5, 10, 15, and 20 mg/kg for 21 days. The protocol:
Briefly, 10×10^6 cells (A375) or 5×10^6 cells (HCT-116) in a 1:1 medium and matrigel mix (0.2 mL total volume) are implanted by subcutaneous injection in the hind leg of nude female rats (NIH model No. NIHRNU-M from Taconic). A total of 8 rats in each group are used for the efficacy study, and a total of 3-4 rats in each group are used for a pharmacodynamic study. The Eli Lilly and Company Animal Care and Use Committee approved all the experimental protocols. […] Tumor growth and body weight are monitored over time to evaluate activity and signs of toxicity. Bidimensional measurements of tumors are performed twice a week and tumor volumes are calculated based on mid-axis length and mid-axis width. Tumor volume data are transformed to a log scale to equalize variance across time and treatment groups. The log volume data are analyzed with a two-way repeated measures analysis of variance by time and treatment using the MIXED® procedures in SAS® software (version 8.2). The correlation model for the repeated measures is spatial power. Treated groups are compared to the control group at each time point. The MIXED® procedure is also used separately for each treatment group to calculate adjusted means and standard errors at each time point. […]

As to `CNc1ncc2cc(-c3cc(NC(=O)NCCC(C)(C)C)c(F)cc3C)c(C)nc2n1` [Example 1, 1-(3,3-Dimethylbutyl)-3-(2-fluoro-4-methyl-5-(7-methyl-2-(methylamino)pyrido[2,3-d]pyrimidin-6-yl)phenyl)urea], the IC50 with DMS-53 was found to be 0.6 nM; in the series on NCI-H1975 (read-out: Abs IC50) it was 0.93 nM; in the series with NCI-H1975 (read-out: Rel IC50) it was 0.69 nM; with MV-4-11 (MV4-11, read-out: Abs IC50), 0.98 nM; in the series with MV-4-11 (MV4-11, read-out: Rel IC50), 1.87 nM; in the series on NCI-H2052 (read-out: Abs IC50) it was 1.27 nM. The IC50 is 0.33 nM in the series with NCI-H2052 (read-out: Rel IC50); 1.96 nM in the series on 22RV1 (read-out: Abs IC50); 0.19 nM in the series with 22RV1 (read-out: Rel IC50); 6.93 nM with LOUCY; above 20 nM with HEL; above 20 nM with SK-OV-3 (read-out: Abs IC50). Further, in the series on SK-OV-3 (read-out: Rel IC50), the IC50 was 10.8 nM. Also, the animal body weight result with A375 V600E xenograft is “no animal body weight loss”. For the same compound, the tumor growth entry with A375 V600E xenograft (all dose groups) was “tumor growth inhibition and tumor growth regression”.
